# Assay results: US10278395B2, “Functionalized environmentally benign nanoparticles” (North Carolina State University, priority 2013, dated 2019)
# Columns and labels:
# E. coli BL21 (DE3) = assay: Quantitative antimicrobial test on E. coli (wet method, CFU reduction efficiency); format: cell-based, Escherichia coli; conditions: for CFU reduction efficiency: 40 ppm
# Method: We performed quantitative antimicrobial tests on Gram-negative E. coli BL21 (DE3), a common human pathogen, and qualitative tests on Gram-negative P. aeruginosa, a human pathogen not susceptible to antimicrobial amines such as BPEI and […]. Therefore, any antimicrobial activity in the P. aeruginosa tests will predominantly stem from silver. The activity of each active agent was determined by comparing the number of colony forming units (CFU) of a reference plate with the CFU of a test plate as depicted in FIG. 20. The reduction of CFU on a test plate with antimicrobial agent is time dependent and concentration dependent. […] We quantified by the antimicrobial reduction efficiency “E” with the following equation The schematic in FIG. 21 describes the wet method procedure that was followed for antimicrobial tests on both E. coli and P. aeruginosa. First, 200 μl of each active agent was placed into separate low retention centrifuge tubes. 100 μl of PBS buffer was added to each tube to baseline the ionic strength, and to adjust the pH value to 7. […] The samples were continuously vortexed. After the bacteria were exposed to the active agent for 1 minute, the survival rate of the bacteria was determined by plating 100 μl of each sample evenly distributed on Luria-Bertani agar plates. The procedure was repeated after 30 minutes of exposure time. After the plating procedure, the petri dishes were sealed and incubated upside-down for 48 h at 37° C.
# Pseudomonas aeruginosa = assay: Qualitative antimicrobial test on P. aeruginosa (wet method, growth on plates); format: cell-based; conditions: for antimicrobial effect (in words): 30 minutes incubation time
# Method: We performed quantitative antimicrobial tests on Gram-negative E. coli BL21 (DE3), a common human pathogen, and qualitative tests on Gram-negative P. aeruginosa, a human pathogen not susceptible to antimicrobial amines such as BPEI and […]. Therefore, any antimicrobial activity in the P. aeruginosa tests will predominantly stem from silver. The activity of each active agent was determined by comparing the number of colony forming units (CFU) of a reference plate with the CFU of a test plate as depicted in FIG. 20. The reduction of CFU on a test plate with antimicrobial agent is time dependent and concentration dependent. The schematic in FIG. 21 describes the wet method procedure that was followed for antimicrobial tests on both E. coli and P. aeruginosa. First, 200 μl of each active agent was placed into separate low retention centrifuge tubes. 100 μl of PBS buffer was added to each tube to baseline the ionic strength, and to adjust the pH value to 7. […] The samples were continuously vortexed. After the bacteria were exposed to the active agent for 1 minute, the survival rate of the bacteria was determined by plating 100 μl of each sample evenly distributed on Luria-Bertani agar plates. The procedure was repeated after 30 minutes of exposure time. After the plating procedure, the petri dishes were sealed and incubated upside-down for 48 h at 37° C.
smiles,measurement,setting,value
"O=[N+]([O-])[O-].[Ag+] [AgNO3, silver nitrate]",Ag concentration at which antimicrobial effects were exhibited,E. coli BL21 (DE3),40 ppm Ag
same,CFU reduction efficiency,E. coli BL21 (DE3); 1 min vortex time,53.33%
same,CFU reduction efficiency,E. coli BL21 (DE3); 30 min vortex time,96.19%
same,Pseudomonas aeruginosa growth,"Pseudomonas aeruginosa; 1 min vortex time or contact time, 10 ppm",Yes
same,Pseudomonas aeruginosa growth,"Pseudomonas aeruginosa; 1 min vortex time or contact time, 20 ppm",Yes
same,antimicrobial effect (in words),Pseudomonas aeruginosa; 20 ppm Ag,no complete antimicrobial effect
same,antimicrobial effect (in words),Pseudomonas aeruginosa; concentration not given,no complete antimicrobial effect
same,Pseudomonas aeruginosa growth,"Pseudomonas aeruginosa; 30 min vortex time or contact time, 10 ppm",Yes
same,Pseudomonas aeruginosa growth,"Pseudomonas aeruginosa; 30 min vortex time or contact time, 20 ppm",Yes
